Measurements reported in US20060069132A1, “Azolecarboxamide herbicides” (priority 2004, published 2006).

Key:
giant foxtail [1] = test: Test C pre-/postemergence herbicide test; assay type: in vivo, Setaria faberi; conditions: preemergence
Procedure, shortened: (§1)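 Preemergence: seeds planted and treated with compound in non-phytotoxic solvent with surfactant; postemergence: plants at 2 to 18 cm (1- to 4-leaf stage) sprayed likewise. Kept in greenhouse 12 to 14 days, then visually rated against controls, 0 (no effect) to 100 (complete control).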

pigweed = test: Test C pre-/postemergence herbicide test; assay type: in vivo, Amaranthus retroflexus; conditions: preemergence
Procedure, shortened: as §1

soybean = test: Test C pre-/postemergence herbicide test; assay type: in vivo, Glycine max; conditions: preemergence
Procedure, shortened: as §1

bermudagrass = test: Test C pre-/postemergence herbicide test; assay type: in vivo, Cynodon dactylon
Procedure, shortened: as §1

yellow nutsedge = test: Test C pre-/postemergence herbicide test; assay type: in vivo, Cyperus esculentus; conditions: preemergence
Procedure, shortened: as §1

large crabgrass = test: Test C pre-/postemergence herbicide test; assay type: in vivo, Digitaria sanguinalis; conditions: preemergence
Procedure, shortened: as §1

giant foxtail [2] = test: Test A pre-/postemergence herbicide test; assay type: in vivo, Setaria faberi
Procedure, shortened: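 Sandy loam soil given preemergence directed spray; plants at 2 to 10 cm, one- to two-leaf stage, sprayed to runoff postemergence, compounds in non-phytotoxic solvent with surfactant. Injury rated visually versus untreated controls after about ten greenhouse days, 0 (no effect) to 100 (complete control); dash means not tested.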

common ragweed = test: Test C pre-/postemergence herbicide test; assay type: in vivo, Ambrosia elatior; set-up: key to Plant response rating, Ragweed: 0 = no effect, 100 = complete control; conditions: preemergence
Procedure, shortened: as §1

morningglory = test: Test C pre-/postemergence herbicide test; assay type: in vivo, Ipomoea coccinea; set-up: key to Plant response rating, Morningglory: 0 = no effect, 100 = complete control; conditions: preemergence
Procedure, shortened: as §1

kochia = test: Test C pre-/postemergence herbicide test; assay type: in vivo, Kochia scoparia; conditions: preemergence
Procedure, shortened: as §1

[3] = 125 g ai/ha, scale 0 (no effect) to 100 (complete control), visual, 12 to 14 days
[4] = 62 g ai/ha, preemergence, scale 0 to 100, 0 no effect, 100 complete control
[5] = 125 g ai/ha, scale 0 (no effect) to 100 (complete control), visual, 12 to 14 days, preemergence
[6] = 250 g ai/ha, scale 0-100, preemergence
[7] = Postemergence, 500 g ai/ha, 0 to 100 scale, 0 no effect, 100 complete control
[8] = Postemergence, 2000 g ai/ha, 0 to 100 scale, 0 no effect, 100 complete control
[9] = Preemergence, 2000 g ai/ha, visual rating, 0 to 100 scale (0 no effect, 100 complete control)
[10] = preemergence, 500 g ai/ha, visual injury, 0 to 100 scale (0 no effect, 100 complete control)
[11] = 500 g ai/ha, scale 0 to 100 (0 no effect, 100 complete control), visual, 12 to 14 days

SMILES	Plant response rating, Foxtail, Giant (giant foxtail [1]; 62 g ai/ha, scale 0 to 100)	Plant response rating, Foxtail, Giant (giant foxtail [1]; [3])	Plant response rating, Foxtail, Giant (giant foxtail [1]; 250 g ai/ha, scale 0-100)	Plant response rating, Pigweed (pigweed; 62 g ai/ha, scale 0 to 100)	Plant response rating, Pigweed (pigweed; [3])	Plant response rating, Pigweed (pigweed; 250 g ai/ha, scale 0-100)	Plant response rating, Soybean (soybean; 62 g ai/ha, scale 0 to 100)	Plant response rating, Soybean (soybean; 250 g ai/ha, scale 0-100)	Plant response rating, Bermudagrass (bermudagrass; [4])	Plant response rating, Bermudagrass (bermudagrass; [5])	Plant response rating, Bermudagrass (bermudagrass; [6])	Plant response rating, Nutsedge, Yellow (yellow nutsedge; 62 g ai/ha, scale 0 to 100)	Plant response rating, Nutsedge, Yellow (yellow nutsedge; [3])	Plant response rating, Nutsedge, Yellow (yellow nutsedge; 250 g ai/ha, scale 0-100)	Plant response rating, Crabgrass, Large (large crabgrass; 62 g ai/ha, scale 0 to 100)	Plant response rating, Crabgrass, Large (large crabgrass; [3])	Plant response rating, Crabgrass, Large (large crabgrass; 250 g ai/ha, scale 0-100)	Foxtail, Giant plant response rating (giant foxtail [2]; [7])	Plant response rating, Foxtail, Giant (giant foxtail [2]; [8])	Foxtail, Giant plant response rating (giant foxtail [2]; [9])	also measured
CCNC(=O)c1ccc(F)c(NC(=O)c2cc(C3(C)CC3)nn2CC)c1 [Compound 300]	30	65	100	100	100	100	0	70	95	100	100	0	20	60	100	100	100	55	90	100	Plant response rating, Bermudagrass (bermudagrass; 31 g ai/ha, scale 0 to 100, 0 no effect, 100 complete control, last section of Table C (species set of preemergence test)): 80; Plant response rating, Nutsedge, Yellow (yellow nutsedge; 31 g ai/ha, scale 0 to 100, last section of Table C): 0; Foxtail, Giant plant response rating (giant foxtail [2]; [10]): 95; Plant response rating, Ragweed (common ragweed; 62 g ai/ha, scale 0 to 100): 5; Plant response rating, Ragweed (common ragweed; 250 g ai/ha, scale 0-100): 10; Plant response rating, Morningglory (morningglory; 62 g ai/ha, scale 0 to 100): 5; Plant response rating, Morningglory (morningglory; [3]): 40; Plant response rating, Morningglory (morningglory; 250 g ai/ha, scale 0-100): 40; Plant response rating, Kochia (kochia; 62 g ai/ha, scale 0 to 100): 60; Plant response rating, Kochia (kochia; [3]): 100; Plant response rating, Kochia (kochia; 250 g ai/ha, scale 0-100): 100
CCN(CC)C(=O)c1cccc(NC(=O)c2cc(C(C)(C)C)nn2C)n1 [Compound 314]	0	0	20	30	60	90	0	40	10	60	60	0	0	0	0	0	40	30	70	90	Plant response rating, Foxtail, Giant (giant foxtail [1]; [11]): 70; Plant response rating, Pigweed (pigweed; [11]): 90; Plant response rating, Soybean (soybean; [11]): 40; Bermudagrass plant response rating (bermudagrass; Preemergence, 500 g ai/ha, scale 0 to 100, 0 no effect, 100 complete control): 90; Plant response rating, Nutsedge, Yellow (yellow nutsedge; [11]): 0; Plant response rating, Crabgrass, Large (large crabgrass; [11]): 60; Foxtail, Giant plant response rating (giant foxtail [2]; [10]): 60; Plant response rating, Ragweed (common ragweed; 62 g ai/ha, scale 0 to 100): 0; Plant response rating, Ragweed (common ragweed; 250 g ai/ha, scale 0-100): 40; Plant response rating, Ragweed (common ragweed; [11]): 60; Plant response rating, Morningglory (morningglory; 62 g ai/ha, scale 0 to 100): 0; Plant response rating, Morningglory (morningglory; [3]): 10; Plant response rating, Morningglory (morningglory; 250 g ai/ha, scale 0-100): 30; Plant response rating, Morningglory (morningglory; [11]): 40; Plant response rating, Kochia (kochia; 62 g ai/ha, scale 0 to 100): 0; Plant response rating, Kochia (kochia; [3]): 0; Plant response rating, Kochia (kochia; 250 g ai/ha, scale 0-100): 30; Plant response rating, Kochia (kochia; [11]): 70
